Experimental data from ChEMBL document CHEMBL4834475, “Synthesis of anti-proliferative [3.3.0]furofuranone derivatives by lactonization and functionalization of C-glycosyl compounds” (Bioorg Med Chem, 2021).
The source made the active and inactive calls. The calls are words filed in the database; no cut-off is given here.

Assays:
U-87 MG [1] = assay: Antiproliferative activity against human U87 cells assessed as reduction in cell viability at 0.1 to 250 uM measured after 72 hrs by MTT assay; format: functional, cell-based; settings: U-87MG ATCC, dose 0.1-250 µM
U-251 [2] = assay: Antiproliferative activity against human U-251 cells assessed as reduction in cell viability at 0.1 to 250 uM measured after 72 hrs by MTT assay; format: functional, cell-based; settings: dose 0.1-250 µM
Daoy [3] = assay: Antiproliferative activity against human Daoy cells assessed as reduction in cell viability at 0.1 to 250 uM measured after 72 hrs by MTT assay; format: functional, cell-based; settings: dose 0.1-250 µM
MDA-MB-231 [4] = assay: Antiproliferative activity against human MDA-MB-231 cells assessed as reduction in cell viability at 0.1 to 250 uM measured after 72 hrs by MTT assay; format: functional, cell-based; settings: dose 0.1-250 µM
U-251 [5] = assay: Induction of cell cycle arrest in human U-251 cells assessed as accumulation at G1 phase at 1 uM measured after 72 hrs by propidium iodide staining based flow cytometry; format: functional
Daoy [6] = assay: Antiproliferative activity against human Daoy cells assessed as reduction in cell viability measured after 72 hrs by MTT assay; format: functional, cell-based
MDA-MB-231 [7] = assay: Antiproliferative activity against human MDA-MB-231 cells assessed as reduction in cell viability measured after 72 hrs by MTT assay; format: functional, cell-based; settings: MDA-MB-231, 72 h
U-251 [8] = assay: Induction of cell cycle arrest in human U-251 cells assessed as accumulation at S phase at 1 uM measured after 72 hrs by propidium iodide staining based flow cytometry; format: functional
U-251 [9] = assay: Induction of cell cycle arrest in human U-251 cells assessed as accumulation at G2/M phase at 1 uM measured after 72 hrs by propidium iodide staining based flow cytometry; format: functional
U-251 [10] = assay: Antiproliferative activity against human U-251 cells assessed as reduction in cell viability measured after 72 hrs by MTT assay; format: functional, cell-based; settings: U-251, 72 h
U-87 MG [11] = assay: Antiproliferative activity against human U87 cells assessed as reduction in cell viability measured after 72 hrs by MTT assay; format: functional, cell-based, U-87MG ATCC
U-251 [12] = assay: Induction of cell cycle arrest in human U-251 cells assessed as increase in accumulation of cells at G1 phase at 0.1 uM measured after 72 hrs by propidium iodide staining based flow cytometry; format: functional
U-251 [13] = assay: Induction of apoptosis in human U-251 cells assessed as increase in accumulation of cells at sub-G1 phase at 0.1 uM measured after 72 hrs by propidium iodide staining based flow cytometry; format: functional, cell-based

SMILES | Activity (U-87 MG [1]) | Activity (U-251 [2]) | Activity (Daoy [3]) | Activity (MDA-MB-231 [4]) | Activity (U-251 [5]) | IC50 (Daoy [6]) | IC50 (MDA-MB-231 [7]) | Activity (U-251 [8]) | Activity (U-251 [9]) | IC50 (U-251 [10]) | IC50 (U-87 MG [11]) | Activity (U-251 [12]) | Activity (U-251 [13])
O=C1C[C@H]2O[C@H](CO)[C@@H](O)[C@H]2O1 | inactive | inactive | inactive | inactive |  |  |  |  |  |  |  |  | 
O=C1C[C@H]2O[C@@H](CO)[C@@H](O)[C@H]2O1 | inactive | inactive | inactive | inactive |  |  |  |  |  |  |  |  | 
O=C(/C=C/c1ccccc1)O[C@H](c1ccccc1)[C@@H]1O[C@@H]2CC(=O)O[C@@H]2[C@@H]1O |  |  |  |  | inactive | 612 µM | 535 µM | inactive | inactive | 1.34 µM | 32.4 µM |  | 
O=C1C[C@H]2O[C@@H](CI)[C@@H](O)[C@H]2O1 |  |  |  |  | inactive | 141 µM |  | inactive | inactive | 529 µM | 7.61 µM |  | 
O=C1C[C@H]2O[C@@H]([C@@H](O)c3ccccc3)[C@@H](O)[C@H]2O1 | inactive | inactive | inactive | inactive |  |  |  |  |  |  |  |  | 
O=C1C[C@H]2O[C@H](CO)[C@@H](OCc3ccccc3)[C@H]2O1 | inactive | inactive | inactive | inactive |  |  |  |  |  |  |  |  | 
O=C1C[C@H]2O[C@@H](CO)[C@@H](OCc3ccccc3)[C@H]2O1 | inactive | inactive | inactive | inactive |  |  |  |  |  |  |  |  | 
COc1cccc2c1C(=O)c1c(O)c3c(c(O)c1C2=O)C[C@@](O)(C(=O)CO)C[C@@H]3O[C@H]1C[C@H](N)[C@H](O)[C@H](C)O1 [DOXORUBICIN] |  |  |  |  |  | 0.0629 µM | 0.482 µM |  |  | 0.106 µM | 0.186 µM | Active | Active
O=C1C[C@H]2O[C@@H]([C@H](O)c3ccccc3)[C@@H](O)[C@H]2O1 | inactive | inactive | inactive | inactive |  |  |  |  |  |  |  |  | 
